{
  "source": "patent US7109193B2",
  "about": "“Tricyclic diazepines tocolytic oxytocin receptor antagonists” (Wyeth, priority 2001, dated 2006)",
  "target": "T1, human vasopressin V1a receptor subtype (Homo sapiens, UniProt P37288)",
  "T1 construct": "host or cells: CHO cells (pZeoSV vector for the Thibonnier line)",
  "T1 sequence (P37288 whole entry)": "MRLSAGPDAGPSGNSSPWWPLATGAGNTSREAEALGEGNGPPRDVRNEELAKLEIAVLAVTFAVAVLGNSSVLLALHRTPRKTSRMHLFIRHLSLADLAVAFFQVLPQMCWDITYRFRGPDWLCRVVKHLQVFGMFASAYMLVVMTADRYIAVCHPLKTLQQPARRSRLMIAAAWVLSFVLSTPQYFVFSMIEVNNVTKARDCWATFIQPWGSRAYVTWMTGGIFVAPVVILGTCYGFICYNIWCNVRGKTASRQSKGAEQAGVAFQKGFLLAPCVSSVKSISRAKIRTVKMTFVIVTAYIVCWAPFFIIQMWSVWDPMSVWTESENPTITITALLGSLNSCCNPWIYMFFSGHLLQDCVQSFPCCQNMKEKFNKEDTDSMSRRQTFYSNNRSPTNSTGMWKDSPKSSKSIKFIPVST",
  "assay": "Vasopressin binding in Chinese Hamster Ovary cell membranes expressing human vasopressin V1a subtype receptors",
  "conditions": "100 nM, CHO cell membranes, [3H]Manning ligand, values without parentheses",
  "procedure,_shortened": "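Displacement of [3H]Manning ligand (8 nM working solution) from human V1a receptors in CHO cell membranes, 25–50 μg protein per well. Incubation ran 60 min at room temperature in 50 mM Tris-HCl pH 7.4 with protease inhibitors, followed by filtration and scintillation counting. Results are given as IC50 or percent inhibition.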",
  "data": [
    {"smiles": "C=CCN1CCN(C(=O)c2ccc3n2Cc2ccccc2N(C(=O)c2ccc(-c4ccccc4C(F)(F)F)c(C)c2)C3)CC1", "note": "[Example 230, (4-Allyl-1-piperazinyl)(10-{[2-methyl-2′-(trifluoromethyl)[1,1′-biphenyl]-4-yl]carbonyl}-10,11-dihydro-5H-pyrrolo[2,1-c][1,4]benzodiazepin-3-yl)methanone]", "values": [
      {"measurement": "inhibition at 0.1 µM", "result": 3, "unit": "%"}
    ]},
    {"smiles": "C=CCN1CCN(C(=O)c2ccc3n2Cc2ccccc2N(C(=O)c2ccc(-c4ccccc4C)cc2)C3)CC1", "note": "[Example 224, (4-Allyl-1-piperazinyl){10-[(2′-methyl[1,1′-biphenyl]-4-yl)carbonyl]-10,11-dihydro-5H -pyrrolo[2,1-c][1,4]benzodiazepin-3-yl}methanone]", "values": [
      {"measurement": "inhibition at 0.1 µM", "result": 1, "unit": "%"}
    ]},
    {"smiles": "COc1ccccc1-c1ccc(C(=O)N2Cc3ccc(C(=O)NCCC4CCCN4C)n3Cc3ccccc32)cc1", "note": "(stereo not shown) [Example 165, 10-[(2′-Methoxy[1,1′-biphenyl]-4-yl)carbonyl]-N-[2-(1-methyl-2-pyrrolidinyl)ethyl]-10,11-dihydro-5H-pyrrolo[2,1-c][1,4]benzodiazepine-3-carboxamide]", "values": [
      {"measurement": "inhibition at 0.1 µM", "result": 24, "unit": "%"}
    ]},
    {"smiles": "COc1cc(C(=O)N2Cc3ccc(C(=O)N4CCN(C(C)C)CC4)n3Cc3ccccc32)ccc1-c1ccccc1C", "note": "[Example 237, (4-isopropyl-1-piperazinyl){10-[(2-methoxy-2′-methyl[1,1′-biphenyl]-4-yl)carbonyl]-10,11-dihydro-5H-pyrrolo[2,1-c][1,4]benzodiazepin-3-yl}methanone]", "values": [
      {"measurement": "inhibition at 0.1 µM", "result": 39, "unit": "%"}
    ]}
  ]
}
